Reference: patent publication US7211685B2, “Calcium receptor antagonists” (Japan Tobacco Inc., priority 2000, dated 2007)
Where a name gives a salt, the structure may show the parent alone.

Columns and labels:
human calcium receptor = target: T1, human calcium receptor (Homo sapiens, UniProt P41180); experiment: Evaluation of antagonistic action on calcium receptor using reporter gene (luciferase); format: cell-based
T1 construct: expressed in transfected cells; host or cells: cell strain derived from rat adrenal
T1 sequence (P41180 20-1078): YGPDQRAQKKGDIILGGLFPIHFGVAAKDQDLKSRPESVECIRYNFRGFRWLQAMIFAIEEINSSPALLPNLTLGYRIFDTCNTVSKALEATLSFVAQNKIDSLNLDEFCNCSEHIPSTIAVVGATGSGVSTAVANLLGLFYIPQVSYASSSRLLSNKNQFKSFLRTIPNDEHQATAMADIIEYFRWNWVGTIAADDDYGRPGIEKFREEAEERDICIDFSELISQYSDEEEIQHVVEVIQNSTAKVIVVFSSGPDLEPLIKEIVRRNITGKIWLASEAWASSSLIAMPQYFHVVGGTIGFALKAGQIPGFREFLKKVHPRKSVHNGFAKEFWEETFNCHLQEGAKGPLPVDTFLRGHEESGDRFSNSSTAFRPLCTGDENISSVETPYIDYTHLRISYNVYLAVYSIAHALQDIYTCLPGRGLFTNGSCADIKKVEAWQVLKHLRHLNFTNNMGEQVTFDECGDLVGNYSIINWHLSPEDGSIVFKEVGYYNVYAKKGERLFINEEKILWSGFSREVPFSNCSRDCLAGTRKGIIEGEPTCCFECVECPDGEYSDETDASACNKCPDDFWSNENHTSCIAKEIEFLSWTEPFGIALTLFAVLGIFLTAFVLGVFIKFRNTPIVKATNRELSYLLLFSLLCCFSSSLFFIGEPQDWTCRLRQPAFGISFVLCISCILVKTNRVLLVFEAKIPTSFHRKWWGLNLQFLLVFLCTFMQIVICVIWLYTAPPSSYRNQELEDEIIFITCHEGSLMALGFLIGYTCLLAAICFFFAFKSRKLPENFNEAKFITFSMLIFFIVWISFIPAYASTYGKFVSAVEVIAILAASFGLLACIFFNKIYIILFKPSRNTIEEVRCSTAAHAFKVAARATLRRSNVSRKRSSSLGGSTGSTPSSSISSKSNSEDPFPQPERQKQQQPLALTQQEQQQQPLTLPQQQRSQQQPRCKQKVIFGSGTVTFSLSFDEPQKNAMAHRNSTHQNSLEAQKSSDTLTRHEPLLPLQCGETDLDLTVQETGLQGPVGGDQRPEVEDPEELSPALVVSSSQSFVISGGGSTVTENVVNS
Protocol: Evaluation of Antagonistic Action on Calcium Receptor Using Reporter Gene
Luciferase cDNA and human calcium receptor cDNA were transfected into a cell strain derived from rat adrenal and the transformed cells were cultured overnight in a medium (F12 medium containing 0.5% dialyzed horse serum and 0.25% dialyzed bovine fetal serum). The next day, a dimethyl sulfoxide solution containing a test compound at 0.01–100 mM was diluted 100-fold with the medium and added to the test compound group at 10 μl per well. A medium containing 50 mM calcium chloride was added to the control group at 10 μl per well, such that the final calcium concentration of the medium became 5 mM. A medium alone was added to the blank group. After culture for 4 hr, luciferase substrate (PicaGene LT-2.0, TOYO INK) was added and the luciferase activity was measured with a photoluminometer. The inhibitory rate (%) was calculated from the obtained measured values according to the following formula.
Based on the results, the concentration (IC50) showing 50% inhibitory rate was determined.

PTH secretion [1] = experiment: PTH secretion promoting action, oral administration to male SD rats, serum PTH by rat PTH (1-84) ELISA; format: in vivo; conditions: for serum PTH concentration, 30 min later / serum PTH concentration, 240 min later / serum PTH concentration, 120 min later: male SD rats, oral, mean ± S.E.
Protocol: (§1) PTH Secretion Promoting Action
(§2) The test compound was orally administered to 6 to 9-week-old male SD rats (Charles River Japan, Inc.) fasted for 20 hr, using a solvent (5% ethanol, 0.5% aqueous methyl cellulose solution) at a dose of 30 mg/5 ml/kg and 100 mg/5 ml/kg. A solvent alone was orally administered to the control group at a dose of 5 ml/kg. The blood was drawn from the tail vein immediately before and 0.5, 1, 2, 4, 6 hr after the administration of the test compound, and sera were obtained. The serum PTH concentration was measured using rat PTH (1-84) ELISA kit (Nohon Medi-Physics). The results of the serum PTH concentration before and 30 min and 4 hr after the administration of the test compound are shown in Table 24, and the results of the serum PTH concentration before and 30 min and 2 hr after the administration of the test compound of the 30 mg/5 ml/kg administration group are shown in Table 25.
In FIG. 1, FIG. 2 and FIG. 3, the time-course changes of the serum PTH concentration at the dose (30 mg/kg) of Example 22, Example 23 and Example 24 are shown.

PTH secretion [2] = experiment: PTH secretion promoting action, oral administration to female Fisher rats, serum PTH by rat PTH (1-84) ELISA; format: in vivo; conditions: 30 mg/5 ml/kg, mean ± S.E.
Protocol: as §1
as §2, with “4” for “6”, “6-week-old female Fisher” for “9-week-old male SD”, “30” for “30 mg/5 ml/kg and 100”, “4” for “4, 6”, “26.” for “24, and the results of the serum PTH concentration before and 30 min and 2 hr after the administration of the test compound of the 30 mg/5 ml/kg administration group are shown in Table 25.”

PTH release = conditions: OVX rat, cited from earlier work
[3] = tested on: osteoblast and osteoclast; conditions: cited from earlier work
[4] = OVX rat; cited from earlier work
[5] = 100 mg/kg administration group (lower line)
[6] = Table 25, 30 mg/5 ml/kg administration group

Compound | IC50 (human calcium receptor; Table 24, final calcium 5 mM) | IC50 (human calcium receptor; Table 25, final calcium 5 mM) | serum PTH concentration, 30 min later (PTH secretion [1]; [6]) | serum PTH concentration, 120 min later (PTH secretion [1]; [6]) | further results
CC(C)(Cc1ccc2ccccc2c1)NC[C@@H](O)CO[C@@H](c1ccccc1CO)C1CC1 [Example 58, (2R)-1-[1,1-Dimethyl-2-(naphthalen-2-yl)ethylamino]-3-[(1R)-(cyclopropyl)[2-(hydroxymethyl)phenyl]methoxy]propan-2-ol Hemifumarate] | – | – | – | – | serum PTH concentration, 30 min later (PTH secretion [2]): 644.4 ± 65.2 pg/mL; serum PTH concentration, 240 min later (PTH secretion [2]): 394.1 ± 100.9 pg/mL; serum PTH concentration, before administration (PTH secretion [2]): 179.2 ± 45.6 pg/mL
CC(C)(Cc1ccc2ccccc2c1)NC[C@@H](O)CO[C@H](c1ccccc1CO)C1CC1 [Example 59, (2R)-1-[1,1-Dimethyl-2-(naphthalen-2-yl)ethylamino]-3-[(1S)-(cyclopropyl)[2-(hydroxymethyl)phenyl]methoxy]propan-2-ol Hemifumarate] | – | – | – | – | serum PTH concentration, 30 min later (PTH secretion [2]): 313.4 ± 103.3 pg/mL; serum PTH concentration, 240 min later (PTH secretion [2]): 62.2 ± 10.3 pg/mL; serum PTH concentration, before administration (PTH secretion [2]): 189.8 ± 90.9 pg/mL
Cc1ccccc1[C@H](OC[C@H](O)CNC(C)(C)Cc1ccc2ccccc2c1)C1CC1.O=C(O)/C=C/C(=O)O [Example 62] | 45 nM | – | – | – | serum PTH concentration, 30 min later (PTH secretion [2]): 620.6 ± 34.2 pg/mL; serum PTH concentration, 240 min later (PTH secretion [2]): 100.1 ± 11.7 pg/mL; serum PTH concentration, before administration (PTH secretion [2]): 82.9 ± 14.5 pg/mL
CC(C)(Cc1ccc2ccccc2c1)NC[C@@H](O)COC(c1cccc(C(N)=O)c1)C1CC1 (stereo partly drawn) [Example 80] | – | 64 nM | 156.6 ± 15.3 pg/mL | 76.1 ± 12.6 pg/mL | –
COc1ccc(CC(C)(C)NC[C@@H](O)CO[C@@H](c2ccccc2C)C2CC2)cc1C [Example 95] | – | 29 nM | 199.1 ± 25.8 pg/mL | 80.4 ± 9.6 pg/mL | –
Cc1ccsc1C(OC[C@H](O)CNC(C)(C)Cc1ccc2ccccc2c1)C1CC1 (stereo partly drawn) [Example 100] | – | 67 nM | 130.1 ± 53.7 pg/mL | 49.3 ± 4.4 pg/mL | –
Cc1ccc(CC(C)(C)NC[C@@H](O)CO[C@@H](c2ccccc2C)C2CC2)cc1C [Example 111] | – | 24 nM | 236.3 ± 60.8 pg/mL | 65.3 ± 6.4 pg/mL | –
COc1ccc(CC(C)(C)NC[C@@H](O)CO[C@@H](c2ccccc2C)C2CC2)cc1C [Example 127] | – | 133 nM | 265.3 ± 22.3 pg/mL | 75.2 ± 7.3 pg/mL | –
CC(C)(Cc1ccc2ccccc2c1)NC[C@@H](O)COc1cccc(Cl)c1C#N [NPS-2143] | – | – | – | – | PTH concentration in blood after 4 hr (PTH release; NPS-2143 100 μmol/kg): about 140 pg/ml; PTH concentration in blood at 30 min (PTH release; NPS-2143 100 μmol/kg): about 115 pg/ml; effect on bone (PTH release; oral administration): no bone increase or decrease was found; PTH secretion promoting action, time course (FIG. 5) (PTH secretion [1]; 30 mg/kg, rat): sustained secretion promoting action; direct effect on osteoblast and osteoclast in vitro [3]: no direct effect; concentration in blood of NPS-2143 after 24 hr [4]: not more than 10 ng/ml; concentration in blood of NPS-2143 at 8 hr after administration [4]: above 100 ng/ml
rat PTH (1-34): rat parathyroid hormone fragment (1-34) administered to OVX rat (AVSEIQLMHNLGKHLASVERMQWLRKKLQDVHNF; Parathyroid hormone; UniProt P04089 32-65, looked up, fragment) | – | – | – | – | PTH concentration in blood, peak in 30 min (PTH release; rat PTH (1-34) 5 μg/kg): about 175 pg/ml; time to restore original PTH level in blood (PTH release; rat PTH (1-34) 5 μg/kg): 2 h

The next lines start with results.

IC50 (human calcium receptor; Table 24, final calcium 5 mM) | IC50 (human calcium receptor; Table 25, final calcium 5 mM) | Compound | serum PTH concentration, 30 min later (PTH secretion [1]; [6]) | serum PTH concentration, 120 min later (PTH secretion [1]; [6]) | further results
560 nM | – | CC(C)(Cc1ccc2ccccc2c1)NC[C@@H](O)COCc1ccccc1 [Comparative Example 1, reference compound] | – | – | serum PTH concentration, 30 min later (PTH secretion [1]; [5]): 139.0 ± 18.8 pg/mL; serum PTH concentration, 240 min later (PTH secretion [1]; [5]): 78.9 ± 12.3 pg/mL; blood PTH concentration at 30 min relative to that before administration (PTH secretion [1]; 100 mg/kg, 30 min after administration): 1.3 times
41 nM | – | COc1ccccc1C(OC[C@H](O)CNC(C)(C)Cc1ccc2ccccc2c1)C1CC1 (stereo partly drawn) [Example 1, (2R)-1-[1,1-Dimethyl-2-(naphthalen-2-yl)ethylamino]-3-[(cyclopropyl)(2-methoxyphenyl)methoxy]propan-2-ol] | – | – | serum PTH concentration, 30 min later (PTH secretion [1]; [5]): 160.0 ± 13.8 pg/mL; serum PTH concentration, 240 min later (PTH secretion [1]; [5]): 58.3 ± 7.3 pg/mL
27 nM | – | Cc1ccccc1C(OC[C@H](O)CNC(C)(C)Cc1ccc2ccccc2c1)C1CC1 (stereo partly drawn) [Example 2, (2R)-1-[1,1-Dimethyl-2-(naphthalen-2-yl)ethylamino]-3-[(cyclopropyl) (2-methylphenyl)methoxy]propan-2-ol] | – | – | serum PTH concentration, 30 min later (PTH secretion [1]; [5]): 154.8 ± 17.1 pg/mL; serum PTH concentration, 240 min later (PTH secretion [1]; [5]): 85.8 ± 17.3 pg/mL
70 nM | – | COc1ccccc1C(C)OC[C@H](O)CNC(C)(C)Cc1ccc2ccccc2c1 (stereo partly drawn) [Example 5, (2R)-1-[1,1-Dimethyl-2-(naphthalen-2-yl)ethylamino]-3-[1-(2-methoxyphenyl)ethoxy]propan-2-ol hydrochloride] | – | – | –
59 nM | – | COc1ccccc1[C@@H](C)OC[C@H](O)CNC(C)(C)Cc1ccc2ccccc2c1 [Example 22, (2R)-1-[1,1-Dimethyl-2-(naphthalen-2-yl)ethylamino]-3-[(1R)-1-(2-methoxyphenyl)ethoxy]propan-2-ol hydrochloride] | – | – | –
27 nM | – | Cc1ccccc1[C@H](OC[C@H](O)CNC(C)(C)Cc1ccc2ccccc2c1)C1CC1 [Example 23, (2R)-1-[1,1-Dimethyl-2-(naphthalen-2-yl)ethylamino]-3-[(1R)-(cyclopropyl)(2-methylphenyl)methoxy]propan-2-ol] | – | – | –
22 nM | – | COc1ccccc1[C@H](OC[C@H](O)CNC(C)(C)Cc1ccc2ccccc2c1)C1CC1 [Example 24, (2R)-1-[1,1-Dimethyl-2-(naphthalen-2-yl)ethylamino]-3-[(1R)-(cyclopropyl)(2-methoxyphenyl)methoxy]propan-2-ol] | – | – | –
– | 51 nM | CN(C)c1ccccc1C(OC[C@H](O)CNC(C)(C)Cc1ccc2ccccc2c1)C1CC1 (stereo partly drawn) [Example 82] | 121.9 ± 9.0 pg/mL | 68.5 ± 11.4 pg/mL | –
– | 49 nM | CC(C)(Cc1ccc2ccccc2c1)NC[C@@H](O)COC(c1cccc(C#N)c1)C1CC1 (stereo partly drawn) [Example 105] | 115.4 ± 20.0 pg/mL | 74.3 ± 12.1 pg/mL | –
